Results published in US10104891B2 (priority 2014, dated 2018).

Experiments:
[1] = system: Pseudoperonospora cubensis; test: Test 2: control effect against cucumber downy mildew; assay type: in vivo; conditions: Pseudoperonospora cubensis, 120 h, control value vs untreated section
How it was run: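 Protective test: zoospores (1.0×10^4 units/ml) misted one day after applying a 4 ppm suspension (wettable powder diluted in 1/5000 Tween20) to 2-leaf cucumber, Sagami hanjiro. After 16 hr at 22° C humid incubation, leaf lesion area read at day 5, expressed as control value versus untreated leaves.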

Phytophthora infestans = test: whole plant or invertebrate; assay type: in vivo; conditions: Phytophthora infestans, in Solanum lycopersicum, 96 h, read-out: control value (Test 1)
Plasmopara viticola = test: Test 3: control effect against grape downy mildew; assay type: in vivo; conditions: Plasmopara viticola, 120 h, control value vs untreated section
How it was run: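 Leaf lesion area, scored 5 days after inoculation and compared with untreated plants, gives the control value. Inoculation used P. viticola zoospores (1.0×10^4 units/ml) with a 16 hr moist incubation at 22° C. It followed by one day a spray of 4 ppm compound (wettable powder in Tween20) onto Neomuscat seedlings.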

Pythium graminicola = test: Test 4: control effect against rice damping-off by the Pythium fungus (soil lavage); assay type: in vivo; conditions: 1,000 ppm, 2.5 ml test suspension drenched on contaminated soil, rice (koshihikari)
How it was run: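 Compound at 1,000 ppm in 1/5000 Tween20 was drenched (2.5 ml) onto Koshihikari rice seeds, 3 pre-sprouted seeds per cell, sown in soil infested with Pythium graminicola (5 g/kg). Regime: 28 °C for 72 h, 5 °C for 2 days, then 25 °C for 14 days. Dead and stunted seedlings were scored into an onset rate, and control value = (1 − treated/untreated) × 100.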

Row | SMILES | pest or weed control at 4 µg/mL [1] [%] | melting point [°C] | pest or weed control at 4 µg/mL (Phytophthora infestans) [%] | pest or weed control at 4 µg/mL (Plasmopara viticola) [%] | pest or weed control at 1000 ppm (Pythium graminicola) [%]
1 | Cc1cc(C(F)(F)F)nn1CC(=O)N1CCC(c2nc(C3OCc4c(F)ccc(OS(C)(=O)=O)c4CO3)cs2)CC1 (stereo not shown) [Compound 1-8, 4-[4-(6-fluoro-9-methylsulfonyloxy-1,5-dihydro-3H-2,4-benzodioxepin-3-yl)-2-thiazolyl]-1-[2-[5-methyl-3-(trifluoromethyl)-1H-pyrazole-1-yl]acetyl]piperidine] | 100 | 151 | 100 | 100 | 
2 | Cc1cc(C(F)(F)F)nn1CC(=O)N1CCC(c2nc(C3OCc4ccc(C(C)(C)C)cc4CO3)cs2)CC1 (stereo not shown) [Compound 1-79, 4-[4-(7-tert-butyl-1,5-dihydro-3H-2,4-benzodioxepin-3-yl)-2-thiazolyl]-1-[2-[5-methyl-3-(trifluoromethyl)-1H-pyrazole-1-yl]acetyl]piperidine] | 90 |  | 100 | 90 | ≥ 90
3 | O=C(Cc1cc(Cl)ccc1Cl)N1CCC(c2nc(C3OCc4cccc(Br)c4CO3)cs2)CC1 (stereo not shown) [Compound 2-19, 4-[4-(6-bromo-1,5-dihydro-3H-2,4-benzodioxepin-3-yl)-2-thiazolyl]-1-[2-(2,5-dichlorophenyl)acetyl]piperidine] | 100 |  | 100 | 100 | ≥ 90
4 | Cc1ccc(C)c(CC(=O)N2CCC(c3nc(C4OCc5ccccc5C(C)O4)cs3)CC2)c1 (stereo not shown) [Compound 2-13, 4-[4-(1-methyl-1,5-dihydro-3H-2,4-benzodioxepin-3-yl)-2-thiazolyl]-1-[2-(2,5-dimethylphenyl)acetyl]piperidine] | 100 |  | 50 | 100 | ≥ 90
5 | Cc1cc(C(F)(F)F)nn1CC(=O)N1CCC(c2nc(C3OCc4cccc(C(F)F)c4CO3)cs2)CC1 (stereo not shown) [Compound 1-97, 4-[4-[6-(difluoromethyl)-1,5-dihydro-3H-2,4-benzodioxepin-3-yl]-2-thiazolyl]-1-[2-[5-methyl-3-(trifluoromethyl)-1H-pyrazole-1-yl]acetyl]piperidine] | 100 |  | 100 | 100 | ≥ 90
6 | Cc1cc(C(F)(F)F)nn1CC(=O)N1CCC(c2nc(C3OCc4c(F)ccc(F)c4CO3)cs2)CC1 [Compound 1-3, 4-[4-(6,9-difluoro-1,5-dihydro-3H-2,4-benzodioxepin-3-yl)-2-thiazolyl]-1-[2-[5-methyl-3-(trifluoromethyl)-1H-pyrazole-1-yl]acetyl]piperidine] | 100 |  | 100 | 100 | ≥ 90
7 | O=C(Cn1nc(C(F)F)cc1C(F)F)N1CCC(c2nc(C3OCc4cccc(Br)c4CO3)cs2)CC1 (stereo not shown) [Compound 1-113, 4-[4-(6-bromo-1,5-dihydro-3H-2,4-benzodioxepin-3-yl)-2-thiazolyl]-1-[2-[3,5-bis(difluoromethyl)-1H-pyrazole-1-yl]acetyl]piperidine] | 100 |  | 100 | 100 | ≥ 90
8 | Cc1ccc(C)c(N(C)C(=O)N2CCC(c3nc(C4OCc5c(F)ccc(OS(C)(=O)=O)c5CO4)cs3)CC2)c1 (stereo not shown) [Compound 2-55, 4-[4-(6-fluoro-9-methylsulfonyloxy-1,5-dihydro-3H-2,4-benzodioxepin-3-yl)-2-thiazolyl]-1-[N-(2,5-dimethylphenyl)-N-methylcarbamoyl]piperidine] | 100 |  | 100 | 100 | ≥ 90
9 | O=C(Cc1cc(Cl)ccc1Cl)N1CCC(c2nc(C3OCc4c(F)ccc(F)c4CO3)cs2)CC1 [Compound 2-4, 4-[4-(6,9-difluoro-1,5-dihydro-3H-2,4-benzodioxepin-3-yl)-2-thiazolyl]-1-[2-(2,5-dichlorophenyl)acetyl]piperidine] | 100 |  | 100 | 100 | ≥ 90
10 | COc1ccc(F)c2c1COC(c1csc(C3CCN(C(=O)Cn4nc(C(F)(F)F)cc4C)CC3)n1)OC2 (stereo not shown) [Compound 1-133, 4-[4-(6-fluoro-9-methoxy-1,5-dihydro-3H-2,4-benzodioxepin-3-yl)-2-thiazolyl]-1-[2-[5-methyl-3-(trifluoromethyl)-1H-pyrazole-1-yl]acetyl]piperidine] | 100 |  | 100 | 100 | ≥ 90
11 | O=C(Cn1nc(C(F)(F)F)cc1C(F)(F)F)N1CCC(c2nc(C3OCc4c(F)ccc(F)c4CO3)cs2)CC1 [Compound 1-50, 4-[4-(6,9-difluoro-1,5-dihydro-3H-2,4-benzodioxepin-3-yl)-2-thiazolyl]-1-[2-[3,5-bis(trifluoromethyl)-1H-pyrazole-1-yl]acetyl]piperidine] | 100 |  | 100 | 100 | ≥ 90
12 | CCCS(=O)(=O)Oc1cccc2c1COC(c1csc(C3CCN(C(=O)Cn4nc(C(F)(F)F)cc4C)CC3)n1)OC2 (stereo not shown) [Compound 1-22, 4-[4-(6-propylsulfonyloxy-1,5-dihydro-3H-2,4-benzodioxepin-3-yl)-2-thiazolyl]-1-[2-[5-methyl-3-(trifluoromethyl)-1H-pyrazole-1-yl]acetyl]piperidine] | 100 |  | 100 | 100 | ≥ 90
13 | O=C(Cn1nc(C(F)(F)F)cc1C(F)(F)F)N1CCC(c2nc(C3OCc4c(F)c(F)c(F)c(F)c4CO3)cs2)CC1 [Compound 1-84, 4-[4-(6,7,8,9-tetrafluoro-1,5-dihydro-3H-2,4-benzodioxepin-3-yl)-2-thiazolyl]-1-[2-[3,5-bis(trifluoromethyl)-1H-pyrazole-1-yl]acetyl]piperidine] | 100 |  | 100 | 100 | ≥ 90
